Assay results published in patent US20030157197A1, “PLANT-DERIVED ANTI-PARASITIC AND ANTIFUNGAL COMPOUNDS AND METHODS OF EXTRACTING THE COMPOUNDS” (priority 1998, published 2003).
In brackets after ≈: the same amount, converted by molar mass. Like-named read-outs stand apart in the source and are kept apart here.

Assays:
Enterocytozoon cuniculi = tested on: Enterocytozoon cuniculi; set-up: dose or concentration left out as unconfirmed; details: cited from earlier work
RK13 cells = tested on: RK13 cells; set-up: dose or concentration left out as unconfirmed; details: cited from earlier work
[1] = tested on: Plasmodium falciparum Sierra Leone (D-6) clone; assay: in vitro antimalarial assay, [3H]hypoxanthine uptake, D-6 clone; type: cell-based; details: chloroquine-susceptible
Protocol: (§1) The in vitro antimalarial assays were performed by using a modification of the semi-automated microdilution technique described earlier (Desjardins et al., 1979, Milhous et al., 1985). Two Plasmodium falciparum malaria parasite clones, designated Indochina (W-2) and Sierra Leone (D-6), were utilized in susceptibility testing. The W-2 clone is resistant to chloroquine, pyrimethamine, sulfadoxine, and quinine, and the D-6 clone is resistant to mefloquine.
(§2) The test extracts/compound, was dissolved in DMSO and serially diluted using malarial growth medium. Drug-induced reduction in uptake of titriated hypoxanthine was used as an index of inhibition of parasite growth.

[2] = tested on: Leishmania (Leishmania) chagasi, MHOM/BR/84/BA-13 promastigotes; assay: in vitro radiorespirometric microtest (RAM), antileishmanial; type: cell-based; details: for respiration / metabolic rate for 14C-substrates: 50 μg/ml for 96 h, versus vehicle control
Protocol: An in vitro radiorespirometric microtest (RAM) technique was used to evaluate the extracts/fractions or pure compounds for possible antileishmanial activity. This method, as already noted, relies on drug inhibition of parasite production of ^14CO2 from a battery of ^14C-substrates by promastigotes to detect drug-mediated parasite damage at low drug concentration within a short time. The test is quantitative, rapid, consistent, and is conducted in serum-free medium in which prior adaptation is not necessary to cultivate the so-called “difficult to grow” species.
A clinical isolate of visceral Leishmania (Leishmania) chagasi, MHOM/BR/84/BA-13, was used for this study. This isolate was selected because sensitivity to SbV was previously determined using RAM.
All ^14C-substrates were selected with specific activities as close to 40 mCi mM^−1 per carbon atom as obtainable from commercial sources.
The procedure was conducted as previously described (Jackson et al., 1989, 1990). Promastigotes were maintained in log phase growth for 3 successive transfers (48-72 h apart) prior to radiorespirometric (RAM) testing. Test samples (or PBSS, 0.1 M phosphate-buffered balanced salt solution, plus drug solvent, DMSO, for parallel control cultures) was added 24 h after the third promastigote transfer to fresh growth medium. Incubation in the presence of plant samples was continued for 96 additional hours while the parasites remained in mid-log phase growth. The test sample was tested at 50 μg ml^−1. Drug sensitivity or resistance was based on ^14C-substrate(s) (listed in Table 1) for which ^14CO2 release was decreased for drug-treated parasites compared to parallel tests of phosphate-buffered balanced salt solution and vehicle (PBSS+DMSO) controls. Each experiment consisted of parallel: (a) duplicate tests of drug-treated parasites; plus (b) duplicate tests of drug vehicle control-treated parasites; plus (c) one “nonbiological” sterility control. The nonbiological control consisted of each ^14C-substrate (one substrate per microtiter tray well), and PBSS (the same PBSS batch used to wash, to suspend the parasites, and to make drug solution). Since there were no parasites in the nonbiological control, any ^14CO2 detected was attributed either to biologic contamination (or, less likely, chemical contamination) of the ^14C-substrates resulting in breakdown of the ^14C-substrates. If radioactivity above background (10 dpm) was detected in the nonbiological control, the suspect solution(s) was replaced and the experiment was repeated.

Cladosporium cucumerinum = assay: TLC bioautographic antifungal test; type: cell-based; details: TLC plate sprayed with spore suspension
Protocol: A method similar to that of Homans and Fuchs (1970) was employed. This technique involves direct spraying of thin layer chromatograms with conidial suspensions of a test organism. About 100 μg of extract was spotted on silica gel TLC plates and developed with suitable solvent system. Dried plates were separately sprayed with either a spore suspension of Cladosporium cucumerinum, and subsequent plates with spore suspensions of Cladosporium carrionii, Cladosporium cladosporioides, Cladosporium tennuisimum (ATCC 623337) and Fonsecaea pedrosoi (ATCC 52593), in some cases to determine the spectrum of activity. The plates were then incubated in sealed humid chambers at room temperature for four days in the dark. […] The powdered rhizome of A. danellii (200 g)was continously extracted with petroleum ether (bp 40-60° C.) to exhaustion in as soxhlet extractor. The petroleum ether extracts when combined and concentrated to dryness in vacuo gave a reddish brown residue (11.41 g). The air dried marc from the above extract was again extracted with ethanol in a soxhlet extractor, extracts were concentrated to dryness under reduce pressure using the rotary evaporator at 40° C. Both extracts were tested for antifungal activity using bioautography (TLC-bioassay) as described above. […]

[3] = tested on: Plasmodium falciparum Indochina (W-2) clone; assay: in vitro antimalarial assay, [3H]hypoxanthine uptake, W-2 clone; type: cell-based; details: chloroquine-resistant
Protocol: as §1, §2

[4] = human; cited from earlier work
[5] = tested on: Trypanosoma brucei brucei Lab 110 EATRO and Trypanosoma brucei rhodesiense KETRI 243, 269, 243 As-10-3; assay: in vitro trypanosome screen, bloodstream trypomastigotes; type: cell-based; details: for IC50: Trypanosoma brucei, RHODESIENSE; for fold increase in activity: versus primary extract / related species
Protocol: The in vitro activity of 39 plant extracts was tested against four strains of animal or human-pathogenic African trypanosomes, and three strains of mammalian-pathogenic Trichomonas spp. The trypanosomes studied were Trypanosoma brucei brucei Lab 110 EATRO, which is pathogenic to cattle and other livestock, and several strains of Trypanosoma brucei rhodesiense, a parasite of humans, domestic and wild animals. Strains of T. b. rhodesiense included drug resistant clinical isolates KETRI 243 and 269 and KETRI 243 As-10-3, a highly melarsen- and diamidine-resistant clone of KETRI 243. The 39 extracts were tested in an in vitro screen using a semi-defined medium for growth of bloodstream trypomastigotes at 37° C. (Hirumi & Hirumi, 1989) to determine IC50 values (Bacchi et al., 1996). Of these, 10 had IC50values at or below 10 μg/ml and were considered sufficiently active to warrant testing of more purified extracts. Of the four secondary extracts supplied, one, aulacocarpin (III) (SU1460), derived from the primary extract SU787 of A. aulocacarpus featured a 10-15 fold increase in activity. […] Eight additional primary extracts were also tested in the trypanosome screen (Table 3). […] Aulocacarpin (III) is an extract from Aframonum aulocacarpus and has the following formula: [drawing 3]

[6] = Plasmodium falciparum, read-out: IC50
[7] = previously determined using RAM

CCNCCCNCCCNCCCNCC [1,11-diethylnorspermine]
effect on parasite culture (Enterocytozoon cuniculi): sterilize the culture | toxicity to feeder layer RK13 cells (RK13 cells): without toxicity

CCNCCCCNCCCCNCCCCNCCCCNCC [1,19-bis(ethylamino)5,10,15-triazanonadecane]
effect on parasite culture (Enterocytozoon cuniculi): sterilize the culture | toxicity to feeder layer RK13 cells (RK13 cells): without toxicity

C=C1CC[C@H]2C(C)(C)CCC[C@]2(C)[C@H]1C/C=C(/C=O)CC=O [Labda-8(17),12-diene-15,16-dial, labda-8(17),12-diene-15,16-dial]
IC50 [1]: 0.09666 µg/mL (≈ 0.32 µM) | concentration inhibiting Leishmania promastigotes [2]: ≤ 50 µg | inhibition of growth of the leishmania strain ([2]; 50 μg/ml): completely inhibited | respiration / metabolic rate for 14C-substrates [2]: markedly reduced respiration | respiration / metabolic rate for 14C-substrates ([2]; listed as labdane-dial): near zero | parasite viability in culture ([2]; after a 96 hr incubation): no live parasites were observed | lowest concentration giving a clearly visible inhibition zone (Cladosporium cucumerinum): 0.5 µg | IC50 [3]: 0.28018 µg/mL (≈ 0.926 µM)

Nc1nc(N)nc(Nc2ccc([As]3SCC(CO)S3)cc2)n1 (stereo not shown) [Melarsoprol, melarsoprol]
incidence of cerebral episodes [4]: 3-5%

COC(=O)C(CC[C@H]1C2(CCC3C(C)(C)[C@@H](O)CC[C@@]31C)CO2)C1CO1 (stereo partly shown) [SU1460, aulacocarpin]
IC50 [5]: 0.86 µg/mL (≈ 2.35 µM) | fold increase in activity [5]: 10-15 fold

COc1cc(O)c2c(c1)O[C@H](c1ccc(O)cc1)CC2=O [Sakuranetin]
IC50 [1, 6]: 0.124 µg/mL (≈ 0.433 µM) | antileishmanial activity ([2]; in vitro): strongest antileishmanial activity | IC50 [3, 6]: 0.17 µg/mL (≈ 0.594 µM)

CC1(C)CCC[C@@]2(C)[C@H]1CC[C@@]1(CO1)[C@@H]2C/C=C(/C=O)CC=O [aframodial]
IC50 [5]: 0.86 µg/mL (≈ 2.7 µM) | fold increase in activity [5]: 10-11 fold

sodium antimony gluconate [Pentostam, reference compound]
concentration at which the isolate is sensitive, as Sb [2, 7]: 6 μg ml^−1 Sb | concentration at which the isolate is sensitive, as drug [2, 7]: 20 μg ml^−1 drug
